Experimental data reported in patent publication US20260250312A1, “ANTIBACTERIAL COMPOUNDS ELIMINATING DORMANT BACTERIAL CELLS” (UNIVERSITÉ D'AIX-MARSEILLE, priority 2022, published 2026).
Where “and” joins values, the source holds several entries; their conditions need not be identical. Equal values may be shown once.

What was measured:
[1] = test system: Staphylococcus aureus (ATCC25923); assay: Microdilution MIC assay (CLSI-based), S. aureus; type: cell-based; conditions: Staphylococcus aureus, ATCC25923, 20 h, 20 hours incubation at 35-37° C., MHB; read-out: Minimum inhibitory concentration S. aureus ATCC25923
Protocol: (§1) The antibacterial activity of compounds was measured using a standard microdilution assay based on the Clinical and Laboratory Standards Institute (CLSI) guidelines. This method was slightly modified. Indeed, assay volumes were increased to 200 μL to improve reproducibility. The chemical compounds to be tested were in the form of salts for biological testing.
(§2) Bacteria tested: Antibacterial activities of the compounds were tested on Staphylococcus aureus (ATCC25923), Enterococcus faecalis (ATCC29212), Escherichia coli ([…]) and Pseudomonas aeruginosa (ATCC27853).
(§3) Preparation of the Preculture: Mueller Hinton Agar plates were inoculated with frozen biological strain in order to obtain separate colonies and the plates were incubated during 24 h at 35-37° C. 3 colonies of similar aspect were picked out, resuspended in 5 mL of fresh Mueller Hinton broth 1× (MHB) and incubated with shaking (160 rpm) at 35-37° C. overnight.
(§4) 0.1 mL of bacteria in exponential phase were suspended in 9.9 mL of MHB (1:100 dilution). 0.1 mL of the 1:100 dilution were dispensed into the wells of microplates containing 0.1 ml of serial compounds dilutions to yield ca. 5×10^5 CFU/mL. In parallel, the stocks solutions of chemical compounds were first diluted in appropriate solvent to a final concentration of 5 mg/mL. 8 μL were dispended into the first wells of the microplates containing 0.1 ml of sterile broth and a 0.5 cascade dilution was performed in MHB from 0.2 mg/mL. One control was made for each strain tested. […] Tests were performed in triplicate.
(§5) Reading of the Results: After incubation, the filter was replaced with a transparent film, and an optical density reading was then taken in an iEMS plate spectrophotometer at 620 nm. Calculation of the minimum inhibitory concentration (MIC) was performed.

[2] = test system: Enterococcus faecalis (ATCC29212); assay: Microdilution MIC assay (CLSI-based), E. faecalis; type: cell-based; conditions: Enterococcus faecalis, ATCC29212, 20 h, 20 hours incubation at 35-37° C., MHB; read-out: Minimum inhibitory concentration E. faecalis ATCC29212
Protocol: as §1, §2, §3, §4, §5

[3] = test system: Escherichia coli (ATCC28922); assay: Microdilution MIC assay (CLSI-based), E. coli; type: cell-based; conditions: Escherichia coli, ATCC28922, 20 h, 20 hours incubation at 35-37° C., MHB; read-out: Minimum inhibitory concentration E. coli ATCC28922
Protocol: as §1, §2, §3, §4, §5

[4] = test system: Pseudomonas aeruginosa (ATCC27853); assay: Microdilution MIC assay (CLSI-based), P. aeruginosa; type: cell-based; conditions: Pseudomonas aeruginosa, ATCC27853, 20 h, 20 hours incubation at 35-37° C., MHB; read-out: Minimum inhibitory concentration P. aeruginosa ATCC27853
Protocol: as §1, §2, §3, §4, §5

CHO-K1 cells = assay: WST1 cytotoxicity test; type: cell-based, Chinese hamster; conditions: Cricetulus griseus, CHO-K1, 24 h, WST1, 24 hours at 37° C.; read-out: IC50 CHO
Description: Cytotoxicity: The test WST1 was used to measure the cytotoxic activity of the compounds of the invention. The test WST1 is a colorimetric test allowing to measure the viability and the degree of cell proliferation. It is based on cleavage of the colorless tetrazolium salts WST-1 (4—[3-(4-iodophenyl)-2-(4-nitrophenyl)-2H-5-tetrazolio]-1,3-benzene disulfonate) with mitochondrial dehydrogenases to the yellow-colored formazan derivative, which may be quantified by spectrophotometry at 420-480 nm. The WST1 test was performed on Chinese hamster ovary (CHO) cells. The CHO-K1 cells (ATCC, USA) were kept in culture in McCoy's 5A medium supplemented with 10% fetal calf serum, 2 mM of L-glutamine and a mixture of penicillin-streptomycin (100 U/ml: 10 μg/mL). The culture was incubated at 37° C. under an atmosphere enriched in CO2 (5%), and subcultured every two days. The cells were transferred into 96-well plates (25,000 cells/mL) in whole McCoy's 5A medium, and maintained for 24 hours at 37° C. under a humid atmosphere enriched in CO2 (5%). Increasing concentrations of tested compounds were added to the wells, each compound was tested in replicates and 8 growth controls containing the cells in the medium alone were included in each series of tests. After 24 hours at 37° C. (5% CO2), the culture medium was removed, the cells were rinsed in phosphate buffer (PBS) and 50 μL of PBS containing 10% of reagent WST1 were added to each well. After 20 minutes of incubation at 37° C., the results were read by spectrophotometry at 450 nm. The results are expressed in dose-response relationships, modeled by nonlinear regression analysis using the TableCurve software.
Cytotoxicity: The same WST1 test as described in Example 2 above was used.

| Structure (SMILES) | MIC [1] | MIC [2] | MIC [3] | MIC [4] | IC50 (CHO-K1 cells) |
| --- | --- | --- | --- | --- | --- |
| COC(=O)[C@H](NC(=O)CC[C@@H](C)[C@H]1CCC2C3C(C[C@H](O)[C@@]21C)[C@@]1(C)CC[C@H](NCCCN2CCN(CCCN)CC2)C[C@H]1C[C@H]3O)C(C)C (stereo partly drawn) [Compound S059, methyl ((4R)-4-((3S,5S,7R,10S,12S,13R,17R)-3-((3-(4-(3-aminopropyl)piperazin-1-yl)propyl)amino)-7,12-dihydroxy-10,13-dimethylhexadecahydro-1H-cyclopenta[a]phenanthren-17-yl)pentanoyl)-D-valinate] | 50 µM and 32 µg/mL | > 200 µM and > 128 µg/mL | 200 µM and 128 µg/mL | > 200 µM and > 128 µg/mL | 56.1 µM and 39.5 µg/mL |
| COC(=O)[C@@H](Cc1ccccc1)NC(=O)CC[C@@H](C)[C@H]1CCC2C3C(CC[C@@]21C)[C@@]1(C)CC[C@H](NCCCNCCCNCCCN)C[C@H]1C[C@H]3O (stereo partly drawn) [Compound S022, methyl ((4R)-4-((3S,5S,7R,10S,13R,17R)-3-((3-((3-((3-aminopropyl)amino)propyl)amino)propyl)amino)-7-hydroxy-10,13-dimethylhexadecahydro-1H-cyclopenta[a]phenanthren-17-yl)pentanoyl)-D-phenylalaninate] | 12.5 µM and 8 µg/mL | 25 µM and 16 µg/mL | 12.5 µM and 8 µg/mL | 12.5 µM and 8 µg/mL | 17.1 µM and 12.4 µg/mL |
| COC(=O)[C@@H](NC(=O)CC[C@@H](C)[C@H]1CCC2C3C(CC[C@@]21C)[C@@]1(C)CC[C@H](NCCCCN)C[C@H]1C[C@H]3O)C(C)C (stereo partly drawn) [Compound S043, methyl ((4R)-4-((3S,5S,7R,10S,13R,17R)-3-((4-aminobutyl)amino)-7-hydroxy-10,13-dimethylhexadecahydro-1H-cyclopenta[a]phenanthren-17-yl)pentanoyl)-L-valinate] | 25 µM and 16 µg/mL | 25 µM and 16 µg/mL | 50 µM and 32 µg/mL | 200 µM and 128 µg/mL | 107 µM and 61.9 µg/mL |
| COC(=O)[C@H](NC(=O)CC[C@@H](C)[C@H]1CCC2C3C(CC[C@@]21C)[C@@]1(C)CC[C@H](NCCN)C[C@H]1C[C@H]3O)C(C)C (stereo partly drawn) [Compound S008, methyl ((4R)-4-((3S,5S,7R,10S,13R,17R)-3-((2-aminoethyl)amino)-7-hydroxy-10,13-dimethylhexadecahydro-1H-cyclopenta[a]phenanthren-17-yl)pentanoyl)-D-valinate] | 25 µM and 16 µg/mL | 25 µM and 16 µg/mL | 25 µM and 16 µg/mL | 200 µM and 128 µg/mL | 86 µM and 47.1 µg/mL |
| COC(=O)[C@H](Cc1ccccc1)NC(=O)CC[C@@H](C)[C@H]1CCC2C3C(CC[C@@]21C)[C@@]1(C)CC[C@H](NCCNCCN)C[C@H]1C[C@H]3O (stereo partly drawn) [Compound S024, methyl ((4R)-4-((3S,5S,7R,10S,13R,17R)-3-((2-((2-aminoethyl)amino)ethyl)amino)-7-hydroxy-10,13-dimethylhexadecahydro-1H-cyclopenta[a]phenanthren-17-yl)pentanoyl)-L-phenylalaninate] | 25 µM and 16 µg/mL | 25 µM and 16 µg/mL | 25 µM and 16 µg/mL | 100 µM and 64 µg/mL | 83.7 µM and 53.5 µg/mL |
| COC(=O)[C@H](Cc1ccccc1)NC(=O)CC[C@@H](C)[C@H]1CCC2C3C(CC[C@@]21C)[C@@]1(C)CC[C@H](NCCCN(C)CCCN)C[C@H]1C[C@H]3O (stereo partly drawn) [Compound S031, methyl ((4R)-4-((3S,5S,7R,10S,13R,17R)-3-((3-((3-aminopropyl)(methyl)amino)propyl)amino)-7-hydroxy-10,13-dimethylhexadecahydro-1H-cyclopenta[a]phenanthren-17-yl)pentanoyl)-L-phenylalaninate] | 6.25 µM and 4 µg/mL | 25 µM and 16 µg/mL | 12.5 µM and 8 µg/mL | 25 µM and 16 µg/mL | 84.5 µM and 57.6 µg/mL |
| COC(=O)[C@H](NC(=O)CC[C@@H](C)[C@H]1CCC2C3CC[C@@H]4C[C@@H](NCCCN5CCN(CCCN)CC5)CC[C@]4(C)C3C[C@H](O)[C@@]21C)C(C)C (stereo partly drawn) [Compound S053, methyl ((4R)-4-((3S,5R,10S,12S,13R,17R)-3-((3-(4-(3-aminopropyl)piperazin-1-yl)propyl)amino)-12-hydroxy-10,13-dimethylhexadecahydro-1H-cyclopenta[a]phenanthren-17-yl)pentanoyl)-D-valinate] | 12.5 µM and 8 µg/mL | 200 µM and 128 µg/mL | 100 µM and 64 µg/mL | > 200 µM and > 128 µg/mL | > 100 µM and > 68 µg/mL |
| COC(=O)[C@@H](NC(=O)CC[C@@H](C)[C@H]1CC[C@H]2[C@@H]3[C@H](O)C[C@@H]4CC(NCCCNCCCCNCCCN)CC[C@]4(C)[C@H]3CC[C@]12C)C(C)C (mixture of isomers) [Compound S001, methyl ((4R)-4-((3S,5S,7R,10S,13R,17R)-3-((3-((4-((3-aminopropyl)amino)butyl)amino)propyl)amino)-7-hydroxy-10,13-dimethylhexadecahydro-1H-cyclopenta[a]phenanthren-17-yl)pentanoyl)valinate] | 3.12 µM and 2 µg/mL | 25 µM and 16 µg/mL | 12.5 µM and 8 µg/mL | 12.5 µM and 8 µg/mL | 4.41 µM and 3.04 µg/mL |
| COC(=O)[C@@H](NC(=O)CC[C@@H](C)[C@H]1CC[C@H]2[C@@H]3[C@H](O)C[C@@H]4CC(NCCCN(CCCN)CCCN)CC[C@]4(C)[C@H]3CC[C@]12C)C(C)C (mixture of isomers) [Compound S003, methyl ((4R)-4-((3S,5S,7R,10S,13R,17R)-3-((3-(bis(3-aminopropyl)amino)propyl)amino)-7-hydroxy-10,13-dimethylhexadecahydro-1H-cyclopenta[a]phenanthren-17-yl)pentanoyl)valinate] | 6.25 µM and 4 µg/mL | 50 µM and 32 µg/mL | 100 µM and 64 µg/mL | 100 µM and 64 µg/mL | 165 µM and 111 µg/mL |
| COC(=O)[C@H](Cc1ccccc1)NC(=O)CC[C@@H](C)[C@H]1CCC2C3C(CC[C@@]21C)[C@@]1(C)CC[C@H](NCCCN)C[C@H]1C[C@H]3O (stereo partly drawn) [Compound S016, methyl ((4R)-4-((3S,5S,7R,10S,13R,17R)-3-((3-aminopropyl)amino)-7-hydroxy-10,13-dimethylhexadecahydro-1H-cyclopenta[a]phenanthren-17-yl)pentanoyl)-L-phenylalaninate] | 12.5 µM and 8 µg/mL | 25 µM and 16 µg/mL | 25 µM and 16 µg/mL | 50 µM and 32 µg/mL | 66 µM and 40.2 µg/mL |
